# Tests used:
# Format in all cases: cell-based
# [1] = tested on: p90RSK; experiment: Immunoblot of phospho-p90RSK in MM.1 S cells; conditions: 10 μM, 0-6 hours
# Procedure: (§1) 5×10^6 were cells treated with 10 μM 8-NH2-Ado for the indicated times and harvested. Cell pellets were washed with cold phosphate-buffered saline (PBS; 8.1 g NaCl, 1.14 g Na2HPO4, 0.22 g KCl, and 0.25 g/L KH2PO4) and incubated with lysis buffer (50 mM HEPES, 150 mM NaCl, 1.5 mM MgCl2, 1 mM EDTA pH 8.0, 100 mM NaFI, 10 mM Na Pyrophosphate, 500 μM PMSF, 0.5% Triton X-100, 10% glycerol) at 4° C. for one hour. Lysates were centrifuged at 4° C. for 1 minute at 9000×g, and the supernatants were collected and stored at −20° C. Protein concentration was determined by Bio-Rad protein assay (BioRad Laboratories, Hercules, Calif.). Protein, at a concentration of 30 μg, was mixed with sample buffer (125 mM Tris, pH 6.8, 4% SDS, 20% glycerol, 100 mM Dithiothreitol (DTT), and 0.05% bromophenol blue), and fractionated on a pre-cast 8-16% Tris-Glycine gel (Invitrogen/Novex, Carlsbad, Calif.). Proteins were then transferred to a Polyvinylidene Fluoride (PVDF) membrane (Immobilon-P, Millipore, Bedford, Mass.): Following protein transfer, membranes were blocked with 5% non-fat milk in PBS-T (PBS with 0.1% Tween), incubated with the primary antibody overnight at 4° C. and subsequently with horseradish peroxidase linked secondary antibody (Amersham, Arlington Heights, Ill.). […]
# [2] = tested on: ERK1/2; experiment: Immunoblot of phospho-ERK1/2 in MM.1 S cells; conditions: 10 μM
# Procedure: (§2) 5×10^6 were cells treated with 10 μM 8-NH2-Ado for the indicated times and harvested. Cell pellets were washed with cold phosphate-buffered saline (PBS; 8.1 g NaCl, 1.14 g Na2HPO4, 0.22 g KCl, and 0.25 g/L KH2PO4) and incubated with lysis buffer (50 mM HEPES, 150 mM NaCl, 1.5 mM MgCl2, 1 mM EDTA pH 8.0, 100 mM NaFI, 10 mM Na Pyrophosphate, 500 μM PMSF, 0.5% Triton X-100, 10% glycerol) at 4° C. for one hour. Lysates were centrifuged at 4° C. for 1 minute at 9000×g, and the supernatants were collected and stored at −20° C. Protein concentration was determined by Bio-Rad protein assay (BioRad Laboratories, Hercules, Calif.). Protein, at a concentration of 30 μg, was mixed with sample buffer (125 mM Tris, pH 6.8, 4% SDS, 20% glycerol, 100 mM Dithiothreitol (DTT), and 0.05% bromophenol blue), and fractionated on a pre-cast 8-16% Tris-Glycine gel (Invitrogen/Novex, Carlsbad, Calif.). Proteins were then transferred to a Polyvinylidene Fluoride (PVDF) membrane (Immobilon-P, Millipore, Bedford, Mass.): Following protein transfer, membranes were blocked with 5% non-fat milk in PBS-T (PBS with 0.1% Tween), incubated with the primary antibody overnight at 4° C. and subsequently with horseradish peroxidase linked secondary antibody (Amersham, Arlington Heights, Ill.). Blots were developed using ECL Plus Chemiluminescent Western Blotting Detection reagent (Amersham, Arlington Heights, Ill.) and the signal was visualized with X-ray film (Hyperfilm, Amersham, Arlington Heights, Ill.). For reprobing purposes, blots were stripped using Restore Western Blot Stripping Buffer from Pierce Biotechnology (Rockford, Ill.). Phospho-MKK3/6 (Ser189/207), phospho-p38 (Thr180/Tyr182), phospho-ATF-2 (Thr69/71), phospho-c-Raf (Ser259), phospho-MEK1/2 (Ser217/221), total MEK1/2, phospho-ERK1/2 (Thr202/Tyr204), total ERK1/2, phospho-p90RSK (Ser380), total RSK, phospho-PDK1 (Ser241), total PDKI, phospho-PTEN (Ser380), total PTEN, phospho-Akt (Ser473), total Akt, phospho-GSK-3β (Ser9), total GSK-3β, phospho-FKHRLI (Thr32)/-FKHR (Thr24), phospho-FKHR (Ser256) primary antibodies were obtained from Cell Signaling Technology (Beverly, Mass.). Total MKK3, total MKK6, total p38, total ATF-2, total c-Raf, total FKHR, total FKHRLI, phospho-JNK and total JNK were purchased from Santa Cruz Biotechnology (Santa Cruz, Calif.). Caspase 3, caspase 9, and PARP antibodies were obtained from Pharmingen (San Diego, Calif.) and anti-MKP1 from Upstate (Lake Placid, N.Y.). Anti-caspase 8 mouse serum was a generous gift of Dr. Marcus Peter (University of Chicago).
# (§3) MM.1 S cells were exposed to 10 μM 8-NH2-Ado for 0, 0.5, 1, 2, 4 and 6 hours, after which cells were lysed as previously (Example 2). 30 μg of protein was separated by gel electrophoresis, transferred to PVDF membrane, and probed with phosphorylation-specific antibodies to MKK3/6, p38 MAPK, ATF-2, MEK1/2, ERK1/2, p90RSK, JNK1, PDK1, Akt, FKHRL1 and GSK-3β.
# (§4) MM. I S cells were treated with 10 μM 8-chloro-adenosine for 0, 0.5, 1, 2, 4 or 6 hours or 10 μM of cytarabine, fludarabine, gemcitabine or 8-amino-adenosine for 4 hours. Cells were lysed as previously described and 30 μg of protein was separated by gel electrophoresis, transferred to PVDF membrane, and probed with phospho-p38 MAPK (Thr180/Tyr182) antibody.
# MM.1 S cells were grown in dextrose-free media and treated with 2 μM Antimycin A, 5 mM 2-DOG, and varying concentrations of dextrose for 90 minutes. Cellular ATP levels were determined using triplicate samples in a luciferase based assay and are expressed here as a percentage of untreated control.
# [3] = tested on: caspase 9; experiment: Caspase 9 activation immunoblot in MM.1 S cells; conditions: 10 μM
# Procedure: as §1, with “Calif.).” for “Calif.). Proteins were then transferred to a Polyvinylidene Fluoride (PVDF) membrane (Immobilon-P, Millipore, Bedford, Mass.): Following protein transfer, membranes were blocked with 5% non-fat milk in PBS-T (PBS with 0.1% Tween), incubated with the primary antibody overnight at 4° C. and subsequently with horseradish peroxidase linked secondary antibody (Amersham, Arlington Heights, Ill.).”
# MM.1 S cells were exposed to 10 μM 8-NH2-Ado for 0, 0.5, 1, 2, 4 or 6 hours, after which cells were lysed as previously described. […] Total protein levels were also assessed to ensure equal loading and transfer (data not shown). […]
# [4] = tested on: FKHRL1; experiment: Immunoblot of phospho-FKHRL1 in MM.1 S cells; conditions: 10 μM
# Procedure: as §1
# [5] = tested on: p38 MAPK; experiment: Immunoblot of phospho-p38 MAPK in MM.1 S cells; conditions: 10 μM
# Procedure: as §2
# as §3, with “GSK-3β. […] FIGS. 1A, 1B, 1C and 1D provide the results of the blots.” for “GSK-3β.”
# as §4
# In a parallel approach to test the involvement of cellular phosphatases, we treated MM.1 S cells with varying concentrations of the phosphatase inhibitor okadaic acid in combination with 8-NH2-Ado for 4 hours to assess whether the serine/threonine phosphatases PP2A and PPI are involved.
# [6] = tested on: p38 in RPMI-8226, MDR10V and MM.1 R cells; experiment: Phosphorylation of p38 in additional myeloma cell lines; conditions: data not shown
# Procedure: as §1, with “Calif.).” for “Calif.). Proteins were then transferred to a Polyvinylidene Fluoride (PVDF) membrane (Immobilon-P, Millipore, Bedford, Mass.): Following protein transfer, membranes were blocked with 5% non-fat milk in PBS-T (PBS with 0.1% Tween), incubated with the primary antibody overnight at 4° C. and subsequently with horseradish peroxidase linked secondary antibody (Amersham, Arlington Heights, Ill.).”
# The effect of 8-NH2-Ado treatment on phosphorylation levels was assessed in additional myeloma cell lines, to determine whether the drug-induced alterations in protein phosphorylation occur in multiple cells lines or are limited to the MM.1 S myeloma cell line.
# [7] = tested on: FKHR; experiment: Immunoblot of phospho-FKHR in MM.1 S cells; conditions: 10 μM, data not shown
# Procedure: as §1
# [8] = tested on: GSK-3β; experiment: Immunoblot of phospho-GSK-3β in MM.1 S cells; conditions: 10 μM
# Procedure: as §1
# [9] = tested on: MKK3/6; experiment: Immunoblot of phospho-MKK3/6 in MM.1 S cells; conditions: 10 μM
# Procedure: as §1
structure (smiles),measurement,setting,value
"Nc1ncnc2c1nc(N)n2[C@@H]1O[C@H](CO)[C@@H](O)[C@H]1O [8-NH2-Ado, 8-amino-adenosine]",phosphorylation level of p90RSK,[1],modestly decrease
same,phosphorylation of ERK1/2,"[2]; 4 hours, data not shown",dramatic loss of phosphorylation
same,Phosphorylation of the ERK1/2 kinases,[2]; by 30 minutes,decreases significantly
same,Phosphorylation of the ERK1/2 kinases,[2]; by 2 hours,declines to negligible levels
same,time at which cleaved and activated caspase 9 appears,[3],2 to 4 h
same,FKHRLI phosphorylation,[4]; at 4 and 6 hours,no appreciable phosphorylation
same,FKHRLI phosphorylation,[4]; by 2 hours,decreases dramatically
same,phosphorylation of p38,[5]; 4 hours,dramatic loss of phosphorylation
same,p38 phosphorylation levels,[5]; after 2 hours,no appreciable phosphorylation
same,p38 phosphorylation levels,[5]; by 1 hour,dramatically reduced
same,Phosphorylation levels of p38,[6],decrease in a dose-dependent manner
same,FKHR phosphorylation,[7],similarly affected
same,Phospho-OSK-3p levels,[8]; by 2 hours,diminish
same,Phospho-OSK-3p levels,[8]; by 6 hours,negligible
same,Phosphorylated MKK3/6 protein levels,[9]; by 2 hours,decrease significantly
same,Phosphorylated MKK3/6 protein levels,[9]; by 6 hours,negligible

# Source: patent publication US20090082304A1, “Methods of Treating Hematological Malignancies with Nucleoside Analog Drugs” (NORTHWESTERN UNIVERSITY, priority 2004, published 2009)
